One series has as its system LNCaP cells. Description: Cytotoxicity in LNCaP prostate cancer cell line. Format: cell-based. Conditions: Homo sapiens. As for the experimental part:
(§1) Studies were carried out on three prostate cancer cell lines: LNCaP, PC3, and DU145. […] There was not a significant difference in cytotoxicity of emetine between days 3 and 7. […] This increase is most likely due to the release of emetine from the dithiocarbamate salt over the time period. Further drug release studies at pH 5 confirmed about 45% release of emetine from the dithiocarbamate salt after 3-day incubation at this acidic pH maintained at 37° C., whereas release of emetine from the dithiocarbamate salt was not observed at physiological pH (e.g., about 7.4).
(§2) Various compounds prepared according to Examples 1-5 were studied in LNCaP, PC3, and DU145 cells.

Series [1] concerns DU145 cells. The series is described as follows: cells. Format: cell-based. Conditions: Homo sapiens. As for the experimental part: as §1, §2
(§3) Various compounds prepared according to Example 6 were studied in DU145 and PC3 cells. The IC50 was determined at 3, 5, and 7 days.

Series [2] relates to PC3 cells. The series is described as follows: cells. Format: cell-based. To be noted: Homo sapiens. The method, then: as §1, §2, §3
Series [3] in a line: pH-responsiveness by HPLC: emetine released in aqueous phosphate buffer. Format: physicochemical. Conditions: 37° C. As for the experimental part:
Relative rates of hydrolysis of the compounds listed in Table 5 below over a 48 hour period were evaluated using the percent emetine released from the acid catalyzed hydrolysis of compounds 1 to 6.
The compounds were incubated in aqueous phosphate buffer at pH 5.5, 6.5 and 7.4 at 37° C. over a 48 hour period. High performance liquid chromatography (HPLC) was employed to analyze the samples and quantify how much emetine was released. The compounds whose hydrolysis to emetine is shown in table 5 are all 100% stable at physiological pH 7.4 up to a 5 day exposure.

Series [4] can be described thus: In vivo toxicity study in mice. The source says:
Each experiment or dosage involved three mice, and drug solutions were made in 1% DMSO/PBS. Each experiment was done three times.
The compounds were subjected to in vivo toxicity studies as follows. […] This observation was the same on the third and fourth day.

Series [5] relates to DU145 cells. The series is described as follows: Cytotoxicity in 100% confluent DU145 cells (Example 9). Format: cell-based. To be noted: Homo sapiens, DU-145, 120 h; DU145, 100% confluent cells, medium pH 6.7, day 5. As for the experimental part: (§4) The cytotoxicity of emetine and Compound 2 (as produced above in Example 1 and referred to in the figures as “ESA44”) was evaluated in DU145 and PC3 cells using 100% confluent cells. Cells were plated at 40,000 cells per well and allowed to grow for 4 days until the pH of the medium was 6.7. Compound 2 was added in RPMI, pH 7.0. The effect of the pH on the hydrolysis of Compound 2 to release emetine was evaluated. FIGS. 1 and 2 are graphs showing the viability of DU145 and PC3 cells as percent of vehicle on day 5 versus concentration of emetine and Compound 2.

The subject of series [6] is PC3 cells. The series is described as follows: Cytotoxicity in 100% confluent PC3 cells (Example 9). Conditions: Homo sapiens, PC-3, 120 h; PC3, 100% confluent cells, medium pH 6.7, day 5. Format: cell-based. The method, then: as §4
The mark [7] stands for this setting: 168 h, read-out: IC50 after 7 days.
[8] abbreviates: DU-145, 168 h, read-out: IC50 after 7 days.
[9] abbreviates: PC-3, 168 h, read-out: IC50 after 7 days.

Like-named read-outs stand apart in the source and are kept apart here.

By IC50 is commonly meant the midpoint of a concentration-inhibition curve. Consider `CCC1CN2CCc3cc(OC)c(OC)cc3C2CC1CC1c2cc(OC)c(OC)cc2CCN1C(=S)SCCCCC(=O)OC` (stereo not drawn) [Compound 4l], for which the results for the IC50 in the series with LNCaP cells (setting [7]), in the series with DU145 cells [1] (setting [8]) and with PC3 cells [2] (setting [9]) were 2310 ± 174 nM, 2250 ± 84 nM and 4860 ± 153 nM, respectively.
In the case of `CCC1CN2CCc3cc(OC)c(OC)cc3C2CC1CC1c2cc(OC)c(OC)cc2CCN1C(=O)/C=C(/C)C(=O)O` (stereo not drawn) [Compound 5], the “% Emetine at pH 5.5” value is 0.0% in series [3] (pH 5.5, 0 hr); 61.5% in series [3] (pH 5.5, 24 hrs); 77.3% in series [3] (pH 5.5, 48 hrs). Further, the “% Emetine at pH 6.5” value in series [3] (pH 6.5, 0 hr) was determined as 0.0%; in series [3] (pH 6.5, 24 hrs), 24.9%. In addition, the “% Emetine at pH 7.4 to 8.0 over 72 hrs” value in series [3] (pH 7.4 to 8.0, 0 hrs) was determined as 0.0%; in series [3] (pH 7.4 to 8.0, 24 hrs), 0.0%; in series [3] (pH 7.4 to 8.0, 48 hrs), 0.0%. Besides, the toxicity observation result is reported as “no noticeable toxicity effect” in series [4] (11 and 33 MPK, day 5); “no noticeable toxicity” in series [4] (100 MPK or below (33 and 11 MPK), through third and fourth day); “slight weight loss” in series [4] (100 MPK, day 5).
As to `CCC1CN2CCc3cc(OC)c(OC)cc3C2CC1CC1c2cc(OC)c(OC)cc2CCN1S(=O)(=O)c1ccccc1` (stereo not drawn) [Compound 8e], the IC50 in the series on LNCaP cells (setting [7]) is 2260 ± 798 nM; with DU145 cells [1] (setting [8]), greater than 10000 nM; in the series with PC3 cells [2] (setting [9]), greater than 10000 nM.
Consider `CCC1CN2CCc3cc(OC)c(OC)cc3C2CC1CC1c2cc(OC)c(OC)cc2CCN1C(=S)NCc1ccccc1` (stereo not drawn) [Compound 11e], for which the IC50 with LNCaP cells (setting [7]) is 2060 ± 438 nM; in the series on DU145 cells [1] (setting [8]) it was 1540 ± 254 nM; with PC3 cells [2] (setting [9]), 6920 ± 71.1 nM.
On the same counts, the results for `CCC1CN2CCc3cc(OC)c(OC)cc3C2CC1CC1c2cc(OC)c(OC)cc2CCN1C(=S)NCc1ccc(Cl)cc1` (stereo not drawn) [Compound 11g] are 1590 ± 151 nM, 2320 ± 91 nM and 2860 ± 66.2 nM.
As to `CCCCNC(=S)N1CCc2cc(OC)c(OC)cc2C1CC1CC2c3cc(OC)c(OC)cc3CCN2CC1CC` (stereo not drawn) [Compound 11k], the IC50 is 1310 ± 166 nM in the series on LNCaP cells (setting [7]), 6587 ± 34.8 nM with DU145 cells [1] (setting [8]) and 6920 ± 170 nM in the series with PC3 cells [2] (setting [9]).
With `CC[C@H]1CN2CCc3cc(OC)c(OC)cc3[C@@H]2C[C@@H]1C[C@H]1NCCc2cc(OC)c(OC)cc21` [Emetine], the IC50 with DU145 cells [5] is 12900 ± 2390 nM; in the series with PC3 cells [6] it was 3850 ± 149 nM; in the series with LNCaP cells (72 h, 3 day exposure, read-out: IC50), 32.9 nM; in the series with LNCaP cells (168 h, 7 days, read-out: IC50 after 7 days), 27.8 ± 3.84 nM; with LNCaP cells (168 h, seven day exposure, read-out: IC50), 31.6 nM; in the series with DU145 cells [1] (DU-145, 72 h, DU145, 3 day exposure, read-out: IC50) it was 37.9 nM. Moreover, the IC50 in the series with DU145 cells [1] (DU-145, 168 h, DU145, 7 days, read-out: IC50 after 7 days) was 23.7 ± 1.22 nM; in the series with DU145 cells [1] (DU-145, 168 h, DU145, seven day exposure, read-out: IC50) it was 23.4 nM; in the series with PC3 cells [2] (PC-3, 72 h, PC3, 3 day exposure, read-out: IC50), 35.1 nM; in the series with PC3 cells [2] (PC-3, 168 h, PC3, 7 days, read-out: IC50 after 7 days), 26.8 ± 2.28 nM; in the series on PC3 cells [2] (PC-3, 168 h, PC3, seven day exposure, read-out: IC50), 29.4 nM. Further, the toxicity observation result in series [4] (33 and 11 MPK) was “slight weight loss”; in series [4] (single dose 100 MPK, within 48 hours) it was “killed all three mice”.
